Source: EP0014295B1, “Benzodioxan derivatives, process for their preparation and their therapeutical applications” (Bouchara, Emile Dr., priority 1979, dated 1980)

Tests used:
Acute toxicity, oral = conditions: mouse, in vivo, souris, per os, read-out: Dose léthale 50 approchée mg/kg per os
From the text: La toxicité a été déterminée chez la souris par voie orale. Les résultats sont donnés dans le tableau III.

[1] = tested on: pression artérielle de l'animal normotendu anesthésié; assay: Effect on arterial pressure of the anaesthetised normotensive animal, intravenous (rat); type: in vivo; conditions: voie intraveineuse
From the text: (§1) a) Effet sur la pression artérielle de l'animal normotendu anesthésié.
(§2) L'étude a été conduite chez le rat, le lapin et le chien. Le composé de l'exemple 2 a été administré par voie intraveineuse. Les différents paramètres enregistrés ont été les pressions artérielles systoliques, diastoliques et moyennes, la fréquence cardiaque, la vitesse d'éjection systolique (dp/dt). La force de contraction cardiaque, les débits artériel et veineux ont été enregistrés chez le chien uniquement.

rats = assay: Chronic toxicity, mixed with food for 45 days; type: in vivo; conditions: 75 mg/kg/jour, mélangé à la nourriture, 45 jours
From the text: Le composé de l'exemple 2, mélangé à la nourriture, a été administré 45 jours de suite à des rats.

[2] = tested on: pression artérielle de l'animal normotendu anesthésié; assay: Effect on arterial pressure of the anaesthetised normotensive animal, intravenous (rabbit); type: in vivo; conditions: lapin normotendu anesthésié, voie intraveineuse, dès la dose de 0,250 mg/kg; proportionnelle aux doses en intensité et en durée
From the text: as §1, §2

[3] = tested on: pression artérielle de l'animal hypertendu non anesthésié; assay: Effect on arterial pressure of the non-anaesthetised hypertensive animal, oral (rat); type: in vivo
From the text: (§3) b) Effet sur la pression artérielle de l'animal hypertendu non anesthésié.
(§4) L'étude a été conduite chez le rat et chez le chien. On a utilisé, d'une part, des animaux (rats) présentant une hypertension expérimentale induite par ligature de l'aorte abdominale entre les deux artères rénales et, d'autre part, des animaux (rats et chiens) porteurs d'hypertension spontanée.
(§5) Le composé de l'exemple 2 a été administré par voie orale soit en prise unique pour connaître la cinétique d'action du produit, soit en traitement prolongé.

[4] = tested on: pression artérielle de l'animal normotendu anesthésié; assay: Effect on arterial pressure of the anaesthetised normotensive animal, intravenous (dog); type: in vivo; conditions: chien normotendu anesthésié, voie intraveineuse
From the text: as §1, §2

[5] = tested on: pression artérielle de l'animal hypertendu non anesthésié; assay: Effect on arterial pressure of the non-anaesthetised hypertensive animal, oral (dog); type: in vivo, chien
From the text: as §3, §4, §5

système nerveux central = assay: Effects on the central nervous system, oral; type: in vivo; conditions: souris, voie orale, doses provoquant une activité antihypertensive chez le rat
From the text: Ces effets centraux sont peut-être directement liés à l'action hypotensive

[6] = dès la dose de 0,250 mg/kg, proportionnelle aux doses en intensité et en durée

O=C(c1ccc(O)cc1)C1CCN(CC2COc3ccccc3O2)CC1 (centres unmarked) [Exemple 7, 1-[(2,3-Dihydro-4H-1,4-benzodioxin)-2-ylméthyl]-4-(4-hydroxy-benzoyl) pipéridine]
LD50 (Acute toxicity, oral): 440 mg/kg

Cc1ccc(C(=O)C2CCN(CC3COc4ccccc4O3)CC2)cc1 (centres unmarked) [Exemple 10]
LD50 (Acute toxicity, oral): 1460 mg/kg

O=C(c1ccc(Cl)cc1)C1CCN(CC2COc3ccccc3O2)CC1 (centres unmarked) [Exemple 6, Chlorhydratede la 1-[(2,3-dihydro-4H-1 ,4-benzodioxine)-2-ylméthyl]-4-(4-chlorobenzoyl) pipéridine]
LD50 (Acute toxicity, oral): 880 mg/kg

O=C(c1ccccc1)C1CCN(CC2COc3ccccc3O2)CC1 (centres unmarked) [Exemple 9, Ghlorhydratede la 1-[(2,3-dihydro-4H-1,4-benzodioxin)-2-ylméthyl]-4-benzoyl pipéridine]
LD50 (Acute toxicity, oral): 2400 mg/kg

O=C(c1ccc(F)cc1)C1CCN(CC2COc3ccccc3O2)CC1 (centres unmarked) [Exemple 2, Chlorhydratede la 1-[(2,3-dihydro-4H-1,4-benzodioxin)-2-ylméthyl]-4-(4-fluorobenzoyl) pipéridine]
fréquence cardiaque [1]: bradycardie | pression artérielle [1, 6]: chute tensionnelle systo- diastolique très rapide | anomalie clinique, hématologique, anatomique (rats): aucune anomalie ni clinique, ni hématologique, ni anatomique | taux des triglycérides (rats): chute nette et isolée | pression artérielle [2]: chute tensionnelle systo- diastolique très rapide | Diminution de la pression artérielle en mm de mercure Chez le rat ([3]; 10 mg/kg P.O., 10mn): 39±11 mm de mercure | Diminution de la pression artérielle en mm de mercure Chez le rat ([3]; 10 mg/kg P.O., 30mn): 45±10 mm de mercure | Diminution de la pression artérielle en mm de mercure Chez le rat ([3]; 10 mg/kg P.O., 1h): 33±9 mm de mercure | Diminution de la pression artérielle en mm de mercure Chez le rat ([3]; 10 mg/kg P.O., 2h): 20±6 mm de mercure | Diminution de la pression artérielle en mm de mercure Chez le rat ([3]; 10 mg/kg P.O., 6h): 6±3 mm de mercure | Diminution de la pression artérielle en mm de mercure Chez le rat ([3]; 20 mg/kg P.O., 10mn): 66±8 mm de mercure | Diminution de la pression artérielle en mm de mercure Chez le rat ([3]; 20 mg/kg P.O., 30mn): 63±6 mm de mercure | Diminution de la pression artérielle en mm de mercure Chez le rat ([3]; 20 mg/kg P.O., 1h): 49±7 mm de mercure | Diminution de la pression artérielle en mm de mercure Chez le rat ([3]; 20 mg/kg P.O., 2h): 37±7 mm de mercure | Diminution de la pression artérielle en mm de mercure Chez le rat ([3]; 20 mg/kg P.O., 6h): 29±6 mm de mercure | Diminution de la pression artérielle en mm de mercure Chez le rat ([3]; 20 mg/kg P.O., 12h): 17±7 mm de mercure | Diminution de la pression artérielle en mm de mercure Chez le rat ([3]; 20 mg/kg P.O., 18h): 8±4 mm de mercure | Diminution de la pression artérielle en mm de mercure Chez le rat ([3]; 20 mg/kg P.O., 24h): 3±3 mm de mercure | Diminution de la pression artérielle en mm de mercure Chez le rat ([3]; 50 mg/kg P.O., 10mn): 68±6 mm de mercure | Diminution de la pression artérielle en mm de mercure Chez le rat ([3]; 50 mg/kg P.O., 30mn): 68±5 mm de mercure | Diminution de la pression artérielle en mm de mercure Chez le rat ([3]; 50 mg/kg P.O., 1h): 52±6 mm de mercure | Diminution de la pression artérielle en mm de mercure Chez le rat ([3]; 50 mg/kg P.O., 2h): 38±7 mm de mercure | Diminution de la pression artérielle en mm de mercure Chez le rat ([3]; 50 mg/kg P.O., 6h): 32±8 mm de mercure | Diminution de la pression artérielle en mm de mercure Chez le rat ([3]; 50 mg/kg P.O., 12h): 16±7 mm de mercure | Diminution de la pression artérielle en mm de mercure Chez le rat ([3]; 50 mg/kg P.O., 18h): 8±5 mm de mercure | Diminution de la pression artérielle en mm de mercure Chez le rat ([3]; 50 mg/kg P.O., 24h): 5±5 mm de mercure | action antihypertensive ([3]; rat hypertendu, voie orale, prise unique ou traitement prolongé, augmentant avec les doses jusqu'à un plafond): action antihypertensive nette, prolongée | pression artérielle [4, 6]: chute tensionnelle systo- diastolique très rapide | dp/dt (vitesse d'éjection systolique) ([4]; parallèlement à l'hypotension): augmentation | débits artériel et veineux ([4]; parallèlement à l'hypotension): augmentation | force de contraction cardiaque ([4]; parallèlement à l'hypotension): augmentation | Diminution de la pression artérielle en mm de mercure Chez le chien ([5]; 10 mg/kg P.O., 20mn): 10±4 mm de mercure | Diminution de la pression artérielle en mm de mercure Chez le chien ([5]; 10 mg/kg P.O., 40mn): 10±4 mm de mercure | Diminution de la pression artérielle en mm de mercure Chez le chien ([5]; 10 mg/kg P.O., 1h): 18±3 mm de mercure | Diminution de la pression artérielle en mm de mercure Chez le chien ([5]; 10 mg/kg P.O., 2h): 11±1 mm de mercure | Diminution de la pression artérielle en mm de mercure Chez le chien ([5]; 10 mg/kg P.O., 5h): 4±3 mm de mercure | Diminution de la pression artérielle en mm de mercure Chez le chien ([5]; 10 mg/kg P.O., 7h): 1±2 mm de mercure | Diminution de la pression artérielle en mm de mercure Chez le chien ([5]; 10 mg/kg P.O., 24h): 0±1 mm de mercure | Diminution de la pression artérielle en mm de mercure Chez le chien ([5]; 20 mg/kg P.O., 20mn): 12±4 mm de mercure | Diminution de la pression artérielle en mm de mercure Chez le chien ([5]; 20 mg/kg P.O., 40mn): 26±3 mm de mercure | Diminution de la pression artérielle en mm de mercure Chez le chien ([5]; 20 mg/kg P.O., 1h): 38±2 mm de mercure | Diminution de la pression artérielle en mm de mercure Chez le chien ([5]; 20 mg/kg P.O., 2h): 37±3 mm de mercure | Diminution de la pression artérielle en mm de mercure Chez le chien ([5]; 20 mg/kg P.O., 5h): 18±7 mm de mercure | Diminution de la pression artérielle en mm de mercure Chez le chien ([5]; 20 mg/kg P.O., 7h): 8±1 mm de mercure | Diminution de la pression artérielle en mm de mercure Chez le chien ([5]; 20 mg/kg P.O., 24h): 2±3 mm de mercure | Diminution de la pression artérielle en mm de mercure Chez le chien ([5]; 50 mg/kg P.O., 20mn): 21±9 mm de mercure | Diminution de la pression artérielle en mm de mercure Chez le chien ([5]; 50 mg/kg P.O., 40mn): 31±6 mm de mercure | Diminution de la pression artérielle en mm de mercure Chez le chien ([5]; 50 mg/kg P.O., 1h): 40±8 mm de mercure | Diminution de la pression artérielle en mm de mercure Chez le chien ([5]; 50 mg/kg P.O., 2h): 46±3 mm de mercure | Diminution de la pression artérielle en mm de mercure Chez le chien ([5]; 50 mg/kg P.O., 5h): 28±8 mm de mercure | Diminution de la pression artérielle en mm de mercure Chez le chien ([5]; 50 mg/kg P.O., 7h): 22±6 mm de mercure | Diminution de la pression artérielle en mm de mercure Chez le chien ([5]; 50 mg/kg P.O., 24h): 1±2 mm de mercure | action antihypertensive ([5]; chien hypertendu, voie orale, prise unique ou traitement prolongé, augmentant avec les doses jusqu'à un plafond): action antihypertensive nette, prolongée | effet antihypertenseur après arrêt du traitement ([5]; chien, après arrêt du traitement, retour progressif à la normale): persistance de l'effat antihypertenseur | agressivité (système nerveux central): diminution | sommeil expérimental (système nerveux central): potentialisation | sédation (système nerveux central): sédation générale | LD50 (Acute toxicity, oral): 880 mg/kg

CCc1ccc(C(=O)C2CCN(CC3COc4ccccc4O3)CC2)cc1 (centres unmarked) [Exemple 11, Chlorhydratede la 1-[(2,3-dihydro-4H-1,4-benzodioxin)-2-ylméthyl]-4-(4-éthylbenzoyl) pipéridine]
LD50 (Acute toxicity, oral): 1200 mg/kg

COc1ccc(C(=O)C2CCN(CC3COc4ccccc4O3)CC2)cc1 (centres unmarked) [Exemple 4, Fumaratede la 1-[(2,3-dihydro-4H-1,4-benzodioxin)-2-ylméthyl]-4-(4-méthoxybenzoyl) pipéridine]
LD50 (Acute toxicity, oral): 364 mg/kg

O=C(Oc1ccc(C(=O)C2CCN(CC3COc4ccccc4O3)CC2)cc1)c1cccnc1 (centres unmarked) [Exemple 8, Nicotinatede la 1-[(2,3-dihydro-4H-1,4-benzodioxin)-2-ylméthyl]-4-(4-hydroxybenzoyl) pipéridine]
LD50 (Acute toxicity, oral): > 3200 mg/kg
